Data taken from US9695155B2, “Herbicidal substituted pyrimidinyloxy benzene compounds” (E. I. DU PONT DE NEMOURS AND COMPANY, priority 2013, dated 2017).

What was measured:
barnyardgrass [1] = test: Test A preemergence; format: in vivo, Echinochloa crus-galli; details: 0 to 100 scale where 0 is no effect and 100 is complete control
How it was run: (§1)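 Visual injury scored 0–100 (100 = complete control) against untreated controls about 10 days after treatment in a greenhouse. Test chemicals, formulated with surfactant in non-phytotoxic solvent, were sprayed on soil preemergence or on 2-10 cm, one- to two-leaf plants postemergence.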

giant foxtail = test: Test A preemergence; format: in vivo, Setaria faberii; details: 0 to 100 scale where 0 is no effect and 100 is complete control
How it was run: as §1

blackgrass [2] = test: Test C preemergence; format: in vivo, Alopecurus myosuroides; details: for Blackgrass plant response rating: preemergence
How it was run: (§2)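 Visual ratings on a 0–100 scale (100 = complete control) were made versus untreated controls after 13–15 greenhouse days. Chemicals in a surfactant-containing non-phytotoxic solvent were applied either preemergence to seeds in loam–sand soil or postemergence to 1- to 4-leaf plants 2–18 cm tall.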

corn [3] = test: Test C preemergence; format: in vivo, Zea mays; details: for Corn plant response rating: preemergence
How it was run: as §2

morningglory = test: Test C preemergence; format: in vivo, Ipomoea coccinea; details: preemergence
How it was run: as §2

ragweed = test: Test C preemergence; format: in vivo, Ambrosia elatior; details: preemergence
How it was run: as §2

soybean = test: Test C preemergence; format: in vivo, Glycine max; details: preemergence
How it was run: as §2

barnyardgrass [4] = test: Test C preemergence; format: in vivo, Echinochloa crus-galli; details: for Barnyardgrass plant response rating: preemergence
How it was run: as §2

oilseed rape = test: Test C preemergence; format: in vivo, Brassica napus; details: preemergence
How it was run: as §2

waterhemp [5] = test: Test C preemergence; format: in vivo, Amaranthus rudis; details: preemergence
How it was run: as §2

blackgrass [6] = test: Test C postemergence; format: in vivo, Alopecurus myosuroides; details: for Plant response rating, Blackgrass: scale 0 to 100 (0 no effect, 100 complete control)
How it was run: as §2

Italian ryegrass = test: Test C postemergence; format: in vivo, Lolium multiflorum; details: for Plant response rating, Ryegrass, Italian: scale 0 to 100 (0 no effect, 100 complete control)
How it was run: as §2

corn [7] = test: Test C postemergence; format: in vivo, Zea mays; details: for Plant response rating, Corn: scale 0 to 100 (0 no effect, 100 complete control)
How it was run: as §2

lambsquarters = test: Test C postemergence; format: in vivo, Chenopodium album; details: for Plant response rating, Lambsquarters: scale 0 to 100 (0 no effect, 100 complete control)
How it was run: as §2

pigweed = test: Test C postemergence; format: in vivo, Amaranthus retroflexus; details: for Plant response rating, Pigweed: scale 0 to 100 (0 no effect, 100 complete control)
How it was run: as §2

barnyardgrass [8] = test: Test C postemergence; format: in vivo, Echinochloa crus-galli; details: for Plant response rating, Barnyardgrass: scale 0 to 100 (0 no effect, 100 complete control)
How it was run: as §2

waterhemp [9] = test: Test C postemergence; format: in vivo, Amaranthus rudis; details: for Plant response rating, Waterhemp: scale 0 to 100 (0 no effect, 100 complete control)
How it was run: as §2

[10] = 16 g ai/ha, scale 0 to 100 (0 no effect, 100 complete control)
[11] = 62 g ai/ha, scale 0 (no effect) to 100 (complete control)
[12] = 125 g ai/ha, scale 0 (no effect) to 100 (complete control)
[13] = Preemergence, 31 g ai/ha, scale 0 to 100, 0 no effect, 100 complete control
[14] = 16 g ai/ha, postemergence, 0 is no effect, 100 is complete control
[15] = 125 g ai/ha, postemergence, visual rating
[16] = Postemergence, 31 g ai/ha, 13 to 15 days

## Cc1cnc(Oc2cccc(C#N)c2-n2cc(I)cn2)nc1 [Compound 136]
Barnyardgrass [1]; 125 g ai/ha
  Plant response rating, Barnyardgrass: 60
Barnyardgrass [1]; 500 g ai/ha
  Barnyardgrass plant response rating: 100
Giant foxtail; 125 g ai/ha
  Plant response rating, Foxtail, Giant: 60
Giant foxtail; 500 g ai/ha
  Foxtail, Giant plant response rating: 100
Blackgrass [2]; [10]
  Blackgrass plant response rating: 0
Blackgrass [2]; [11]
  Blackgrass plant response rating: 75
Blackgrass [2]; [12]
  Blackgrass plant response rating: 80
Blackgrass [2]; [13]
  Plant response rating, Blackgrass: 0
Corn [3]; [10]
  Corn plant response rating: 5
Corn [3]; [11]
  Corn plant response rating: 5
Corn [3]; [12]
  Corn plant response rating: 15
Corn [3]; [13]
  Plant response rating, Corn: 0
morningglory; [10]
  Morningglory plant response rating: 20
morningglory; [11]
  Morningglory plant response rating: 10
morningglory; [12]
  Morningglory plant response rating: 60
ragweed; [10]
  Ragweed plant response rating: 0
ragweed; [11]
  Ragweed plant response rating: 20
ragweed; [12]
  Ragweed plant response rating: 70
soybean; [10]
  Soybean plant response rating: 20
soybean; [11]
  Soybean plant response rating: 50
soybean; [12]
  Soybean plant response rating: 85
Barnyardgrass [4]; [10]
  Barnyardgrass plant response rating: 0
Barnyardgrass [4]; [11]
  Barnyardgrass plant response rating: 60
Barnyardgrass [4]; [12]
  Barnyardgrass plant response rating: 100
Barnyardgrass [4]; [13]
  Plant response rating, Barnyardgrass: 10
Oilseed rape; [10]
  Oilseed Rape plant response rating: 0
Oilseed rape; [11]
  Oilseed Rape plant response rating: 50
Oilseed rape; [12]
  Oilseed Rape plant response rating: 100
Waterhemp [5]; [10]
  Waterhemp plant response rating: 0
Waterhemp [5]; [11]
  Waterhemp plant response rating: 75
Waterhemp [5]; [12]
  Waterhemp plant response rating: 100
Blackgrass [6]; [14]
  Plant response rating (0 to 100), Blackgrass: 0
Blackgrass [6]; [15]
  Plant response rating, Blackgrass: 5
Blackgrass [6]; [16]
  Plant response rating, Blackgrass: 5
Blackgrass [6]; Postemergence, 62 g ai/ha
  Plant response rating, Blackgrass: 5
Italian ryegrass; [14]
  Plant response rating (0 to 100), Ryegrass, Italian: 0
Italian ryegrass; [15]
  Plant response rating, Ryegrass, Italian: 0
Italian ryegrass; Postemergence, 62 g ai/ha
  Plant response rating, Ryegrass, Italian: 0
Corn [7]; [14]
  Plant response rating (0 to 100), Corn: 0
Corn [7]; [15]
  Plant response rating, Corn: 5
Corn [7]; Postemergence, 62 g ai/ha
  Plant response rating, Corn: 0
lambsquarters; [14]
  Plant response rating (0 to 100), Lambsquarters: 20
lambsquarters; [15]
  Plant response rating, Lambsquarters: 75
lambsquarters; Postemergence, 62 g ai/ha
  Plant response rating, Lambsquarters: 60
pigweed; [14]
  Plant response rating (0 to 100), Pigweed: 45
pigweed; [15]
  Plant response rating, Pigweed: 55
pigweed; Postemergence, 62 g ai/ha
  Plant response rating, Pigweed: 55
Barnyardgrass [8]; [14]
  Plant response rating (0 to 100), Barnyardgrass: 0
Barnyardgrass [8]; [15]
  Plant response rating, Barnyardgrass: 5
Barnyardgrass [8]; [16]
  Plant response rating, Barnyardgrass: 0
Barnyardgrass [8]; Postemergence, 62 g ai/ha
  Plant response rating, Barnyardgrass: 0
Waterhemp [9]; [14]
  Plant response rating (0 to 100), Waterhemp: 40
Waterhemp [9]; [15]
  Plant response rating, Waterhemp: 30
Waterhemp [9]; Postemergence, 62 g ai/ha
  Plant response rating, Waterhemp: 35
